According to US20140357512A1, “HISTONE DEACETYLASE (HDAC) BIOMARKERS IN MULTIPLE MYELOMA” (priority 2013, published 2014):

Test system: human myeloma cell line MM.1S
Assay: SILAC acetylated-lysine peptide profiling, HDAC inhibitor vs DMSO (light/heavy ratio)
Assay type: cell-based
Text: An embodiment of the invention comprises utilizing the SILAC method in order to quantitate changes in protein expression between two or more populations of cells. The SILAC method is a technique based on mass spectrometry that detects differences in protein abundance among samples using non-radioactive isotopic labeling. The SILAC method is known in the art, and described in detail in Ong et al., “Stable Isotope Labeling by Amino Acids in Cell Culture, SILAC, as a Simple and Accurate Approach to Expression Proteomics”, Molecular & Cellular Proteomics, vol. 1, pp. 376-386 (2002), which is incorporated herein by reference in its entirety.
Briefly, the SILAC method involves growing two populations of cells in cell culture. The first population of cells is grown in growth media containing normal amino acids (“normal media”). The second population of cells is grown in media lacking a standard essential amino acid (such as lysine), but is then supplemented with a non-radioactive, isotopically labeled form of that essential amino acid (such as lysine labeled with ^13C atoms, rather than normal ^12C atoms), which is called “heavy media”. When the two populations of cells are each growing in the medium, they incorporate the amino acids into all of their proteins. The growth of cells maintained in the heavy media is no different from that in normal media. All peptides containing the heavy amino acids are heavier than their normal counterparts. The cells from each of the two populations of cells are lysed. The lysates from each of the two cell populations are then combined. The combined cell lysates are then analyzed by mass spectrometry. Pairs of chemically identical peptides of different stable isotope composition can be differentiated in a mass spectrometer due to their difference in mass. The ratio of peak intensities in the mass spectrum for such peptide pairs reflects the abundance ratio for the two proteins.
This example describes SILAC studies that were performed to compare the effects of three different HDAC inhibitors (Compound A, Compound B, and tubastatin A) to a control on a human multiple myeloma cell line. The HDAC inhibitors were also compared amongst themselves to determine differences in their effects.
A human myeloma cell line MM.1S was grown using either ^12C (light) or ^13C (heavy) lysine containing culture medium. The “heavy” cells were treated with DMSO as the control, and the “light” cells were treated with a single HDAC inhibitor at 37° C. for 6 hours. The heavy and light cells were lysed, and the lysates were mixed in 1:1 ratio and digested with the protease trypsin. The acetylated lysine containing peptides (due to the action of the HDAC inhibitor) in the digested peptide pool were captured by a non-specific anti-acetylated lysine antibody cocktail (the antibodies identify both light and heavy acetylated peptides), and subjected to mass spectrometry analysis in order to identify thousands of individual peptides.
Thousands of peptides were identified in pairs (^12C and ^13C) due to their known mass differences. The amino acid sequence and quantitative ratio (Light/Heavy) of a given peptide in two differentially treated cell lysates were then determined and annotated with their possible protein (gene) sources.
As stated above, three HDAC inhibitors (Compound A, Compound B, and Tubastatin A) were used. Thus, the SILAC method was performed three times, with a different HDAC inhibitor compared to a control each time. Accordingly, there are three pairs of quantitative data in the table below, i.e., Compound A:DMSO, Compound B:DMSO, and Tubastatin A:DMSO. A cut-off of 1.30 fold of change (increase or decrease) was then used to determine “changed” or “+” in the table, and any peptides with a fold of change less than 1.3 fold were determined to be “unchanged” or “0” in the table. Those peptides that were not identified were marked as “NA” in the table. […]

For `O=C(NO)c1cnc(NC2(c3cccc(F)c3)CCCCC2)nc1` [Compound B, 2-((1-(3-fluorophenyl)cyclohexyl)amino)-N-hydroxypyrimidine-5-carboxamide], which “L/H ratio of acetylated peptide” value (VETFSGVYK(ac)K (SEQ ID NO: 445), 40S ribosomal protein S7 [178], RPS7) is on record?
The value was −0.78 log 2.

What about the “L/H ratio of acetylated peptide” value (VEWAK(ac)FQER (SEQ ID NO: 447), Splicing factor 3A subunit 1 [251], SF3A1) of the same compound?
Its value is −0.55 log 2.

What about the “light to heavy ratio (L/H ratio) of acetylated peptide, log 2 scale” value (“light to heavy ratio (L/H ratio) … log 2 scale” for short) (VGIVGK(ac)YGTR (SEQ ID NO: 250), 60S ribosomal protein L37a [13], RPL37A) of the same compound?
Its value is 0.00.

What about the “L/H ratio of acetylated peptide” value (VIIVVK(ac)DGPGFYTTR (SEQ ID NO: 401), Trifunctional enzyme subunit alpha mitochondrial [540], HADHA) of the same compound?
Its value is −0.70 log 2.

And the “L/H ratio of acetylated peptide TNEK(ac)VELQELNDR (SEQ ID NO: 122)” value (VIM [104], log 2 scale, drug vs DMSO)?
The value was 0.00.

And the “L/H ratio of acetylated peptide FANYIDK(ac)VR (SEQ ID NO: 118)” value (VIM [120], log 2 scale, drug vs DMSO)?
Its value is 0.00.

And the “L/H ratio of acetylated peptide […](ac)GQGK (SEQ ID NO: 119)” value (VIM [139], log 2 scale, drug vs DMSO)?
Its value is 0.00.

What about the “L/H ratio of acetylated peptide SK(ac)[…] (SEQ ID NO: 121)” value (VIM [294], log 2 scale, drug vs DMSO) of the same compound?
Its value is 0.00.

And the “L/H ratio of acetylated peptide LQDEIQNMK(ac)EEMAR (SEQ ID NO: 120)” value (VIM [373], log 2 scale, drug vs DMSO)?
The value was 0.00.

What about the “light to heavy ratio (L/H ratio) … log 2 scale” value (VVVGK(ac)[…] (SEQ ID NO: 193), Protein disulfide-isomerase A4 [533], PDIA4) of the same compound?
Its value is 0.00.

And the “L/H ratio of acetylated peptide” value (VYISK(ac)CYR (SEQ ID NO: 394), Isoform 1 of Regulator of micro-tubule dynamics protein 3 [426], FAM82A2)?
The value was −0.85 log 2.

What about the “light to heavy ratio (L/H ratio) of acetylated peptide TLLIK(ac)TVETR (SEQ ID NO: 269)” value (Vimentin [445], VIM, drug:DMSO) of the same compound?
Its value is 0.00 log 2.

And the “L/H ratio of acetylated peptide” value (WTPEVK(ac)[…] (SEQ ID NO: 442), Rho-related GTP-binding protein RhoC [104], RHOC)?
The value was −0.39 log 2.

And the “light to heavy ratio (L/H ratio) of acetylated peptide IAAYK(ac)SILQER (SEQ ID NO: 531)” value (X-ray repair cross-complementing protein 5 [265], gene XRCC5, inhibitor:DMSO)?
Its value is 0.00 log 2.

What about the “light to heavy ratio (L/H ratio) of acetylated peptide EEAIK(ac)FSEEQR (SEQ ID NO: 509)” value (X-ray repair cross-complementing protein 5 [648], gene XRCC5, inhibitor:DMSO) of the same compound?
The value was 0.00 log 2.

What about the “light to heavy ratio (L/H ratio) of acetylated peptide […](ac)HFQD (SEQ ID NO: 355)” value (X-ray repair cross-complementing protein 6 [605], XRCC6, drug:DMSO) of the same compound?
Its value is −0.74 log 2.

And the “L/H ratio of acetylated peptide ALQEK(ac)VEIK (SEQ ID NO: 123)” value (XRCC5 [665], log 2 scale, drug vs DMSO)?
The value was 0.00.

And the “L/H ratio of acetylated peptide” value (YHVSEK(ac)PYGIVEK (SEQ ID NO: 424), NADH dehydrogenase [ubiquinone] 1 beta subcomplex subunit 6 [93], NDUFB6)?
Its value is −1.00 log 2.

What about the “L/H ratio of acetylated peptide” value (YK(ac)[…] (SEQ ID NO: 417), Microsomal glutathione S-transferase 3 [37], MGST3) of the same compound?
The value was −0.59 log 2.

What about the “light to heavy ratio (L/H ratio) … log 2 scale” value (YLENGK(ac)ETLQR (SEQ ID NO: 163), Putative HLA class I histocompatibility antigen alpha chain H [200], HLA-H) of the same compound?
Its value is 0.00.

And the “light to heavy ratio (L/H ratio) … log 2 scale” value (YNCDK(ac)MICR (SEQ ID NO: 254), Ubiquitin-605 ribosomal protein L40 [93], UBA52)?
Its value is 0.00.

And the “L/H ratio of acetylated peptide” value (YPPPYK(ac)HFWTAES (SEQ ID NO: 461), Isoform 2 of Ubiquitin-associated protein 2-like [976], UBAP2L)?
The value was −0.50 log 2.

What about the “L/H ratio of acetylated peptide” value (YTEQITNEK(ac)LAMVK (SEQ ID NO: 423), NADH dehydrogenase [ubiquinone] 1 alpha subcomplex subunit 5 [55], NDUFA5) of the same compound?
Its value is −0.40 log 2.

And the “light to heavy ratio (L/H ratio) … log 2 scale” value ([…](ac)AAVR (SEQ ID NO: 220), Tricarboxylate transport protein mitochondrial [97], SLC25A1)?
Its value is 0.00.

What about the “light to heavy ratio (L/H ratio) … log 2 scale” value ([…](ac)DETEFR (SEQ ID NO: 137), UPF0568 protein C14orf166 [20], C14orf166) of the same compound?
The value was 0.00.

What about the “L/H ratio of acetylated peptide” value ([…](ac)DGEIYCK (SEQ ID NO: 383), Cysteine and glycine-rich protein 1 [161], CSRP1) of the same compound?
The value was −0.67 log 2.

And the “L/H ratio of acetylated peptide” value ([…](ac)EKLNER (SEQ ID NO: 406), 60 kDa heat shock protein mitochondrial [387], HSPD1)?
Its value is 0.40 log 2.

And the “L/H ratio of acetylated peptide” value ([…](ac)FDENAK (SEQ ID NO: 429), Phosphoglycerate kinase 1 [291], PGK1)?
The value was 0.60 log 2.

And the “L/H ratio of acetylated peptide” value ([…](ac)FIAR (SEQ ID NO: 441), Protein RCC2 [293], RCC2)?
Its value is 0.75 log 2.

And the “light to heavy ratio (L/H ratio) … log 2 scale” value ([…](ac)FSDDHYR (SEQ ID NO: 190), NAD(P) transhydrogenase mitochondrial [100], NNT)?
The value was 0.00.

And the “L/H ratio of acetylated peptide” value ([…](ac)FVER (SEQ ID NO: 460), cDNA FLJ40024 fis clone STOMA2007745 highly similar to UBIQUITIN-[…] E1 [119], UBA1)?
Its value is 0.44 log 2.

And the “L/H ratio of acetylated peptide” value ([…](ac)GDSK(ac)NAK (SEQ ID NO: 392), Histone acetyltransferase p300 [1542:1546], EP300)?
The value was 0.53 log 2.
